Test results reported in patent US11555032B2, “Isoxazole derivatives as FXR agonists and methods of use thereof” (Enanta Pharmaceuticals, Inc., priority 2019, dated 2023).

Molecular target: T1, human FXR (NR1H4) (Homo sapiens, UniProt Q96RI1)
T1 construct: host or cells: CHO (Chinese hamster ovary) reporter cells
T1 sequence (Q96RI1 1-486): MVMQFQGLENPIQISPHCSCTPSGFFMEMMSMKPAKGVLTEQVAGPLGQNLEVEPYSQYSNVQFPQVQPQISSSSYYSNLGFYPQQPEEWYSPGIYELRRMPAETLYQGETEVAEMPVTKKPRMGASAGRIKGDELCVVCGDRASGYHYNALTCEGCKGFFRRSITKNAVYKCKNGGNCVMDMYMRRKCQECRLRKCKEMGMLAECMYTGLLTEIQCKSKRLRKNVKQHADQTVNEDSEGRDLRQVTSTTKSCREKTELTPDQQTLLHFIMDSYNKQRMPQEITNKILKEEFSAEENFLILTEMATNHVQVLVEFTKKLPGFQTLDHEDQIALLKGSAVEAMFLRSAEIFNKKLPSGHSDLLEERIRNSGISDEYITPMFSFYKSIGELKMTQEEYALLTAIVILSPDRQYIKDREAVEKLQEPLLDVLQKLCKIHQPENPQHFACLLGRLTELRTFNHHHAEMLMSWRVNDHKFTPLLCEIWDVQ
Assay: Human FXR (NRIH4) Assay, luciferase reporter
Assay type: cell-based
Conditions: CHO reporter cells expressing human NR1H4, luciferase, 22 hours incubation
Text: Determination of a ligand mediated Gal4 promoter driven transactivation to quantify ligand binding mediated activation of FXR. FXR Reporter Assay kit purchased from Indigo Bioscience (Catalogue number: IB00601) to determine the potency and efficacy of compound developed by Enanta that can induce FXR activation. The principle application of this reporter assay system is to quantify functional activity of human FXR. The assay utilizes non-human mammalian cells, CHO (Chinese hamster ovary) cells engineered to express human NR1H4 protein (referred to as FXR). Reporter cells also incorporate the cDNA encoding beetle luciferase which catalyzes the substrates and yields photon emission. Luminescence intensity of the reaction is quantified using a plate-reading luminometer, Envision. Reporter Cells include the luciferase reporter gene functionally linked to an FXR responsive promoter. Thus, quantifying changes in luciferase expression in the treated reporter cells provides a sensitive surrogate measure of the changes in FXR activity. EC50 and efficacy (normalize to CDCA set as 100%) is determined by XLFit. The assay is according to the manufacturer's instructions. In brief, the assay was performed in white, 96 well plates using final volume of 100 ul containing cells with different doses of compounds. Retrieve Reporter Cells from −80° C. storage. Perform a rapid thaw of the frozen cells by transferring a 10 ml volume of 37° C. cell recovery medium into the tube of frozen cells. Recap the tube of Reporter Cells and immediately place it in a 37° C. water bath for 5-10 minutes. Retrieve the tube of Reporter Cell Suspension from the water bath. Sanitize the outside surface of the tube with a 70% alcohol swab, and then transfer it into the cell culture hood. Dispense 90 μl of cell suspension into each well of the 96-well Assay Plate. Transfer the plate into 37° C. incubator, allowing the cells adherent to the bottom of the well. Dilute compounds in Dilution Plate (DP), and administrate to cells at Assay Plate (AP). DMSO content of the samples was kept at 0.2%. Cells were incubated for additional 22 hours before luciferase activities were measured. Thirty minutes before intending to quantify FXR activity, remove Detection Substrate and Detection Buffer from the refrigerator and place them in a low-light area so that they may equilibrate to room temperature. Remove the plate's lid and discard all media contents by ejecting it into an appropriate waste container. Gently tap the inverted plate onto a clean absorbent paper towel to remove residual droplets. Cells will remain tightly adhered to well bottoms. Add 100 μl of luciferase detection reagent to each well of the assay plate. Allow the assay plate to rest at room temperature for at least 5 minutes following the addition of LDR. Set the instrument (Envision) to perform a single 5 second “plate shake” prior to reading the first assay well. Read time may be 0.5 second (500 mSec) per well. EC50 and Efficacy (normalize to CDCA set as 100%) is determined by XLFit.
The efficacy was normalized to CDCA set as 100%.

SMILES	EC50
CC(C)Oc1cc(C(=O)O)cc2sc(NC3[C@@H]4CC[C@H]3CC(OCc3c(-c5c(Cl)cccc5Cl)noc3C3CC3)C4)nc12 (stereo partly drawn) [Example 1, 2-(((1R,3r,5S,8s)-3-((5-cyclopropyl-3-(2,6-dichlorophenyl)isoxazol-4-yl)methoxy)bicyclo[3.2.1]octan-8-yl)amino)-4-isopropoxybenzo[d]thiazole-6-carboxylic acid]	< 25 nM
CC(C)Oc1cc(C(=O)O)cc2sc(NC3C4CCC3CC(OCc3c(-c5c(Cl)cccc5Cl)noc3C3CC3)C4)nc12 [Example 2, 2-(((1R,3r,5S,8r)-3-((5-cyclopropyl-3-(2,6-dichlorophenyl)isoxazol-4-yl)methoxy)bicyclo[3.2.1]octan-8-yl)amino)-4-isopropoxybenzo[d]thiazole-6-carboxylic acid]	< 25 nM
O=C(O)c1ccc2c(c1)CN(C1C3CCC1CC(OCc1c(-c4c(Cl)cccc4Cl)noc1C1CC1)C3)C2 (centres unmarked) [Example 2-2]	< 25 nM
CC(C)Oc1cc(C(=O)O)cc2sc(NC3C4CCC3CC(OCc3c(-c5ccccc5OC(F)(F)F)noc3C3CC3)C4)nc12 [Example 3, 2-(((1R,3r,5S,8s)-3-((5-cyclopropyl-3-(2-(trifluoromethoxy)phenyl)isoxazol-4-yl)methoxy)bicyclo[3.2.1]octan-8-yl)amino)-4-isopropoxybenzo[d]thiazole-6-carboxylic acid]	< 25 nM
O=C(O)c1cc(F)c2nc(NC3C4CCC3CC(OCc3c(-c5ccccc5OC(F)(F)F)noc3C3CC3)C4)sc2c1 (centres unmarked) [Example 3-2]	< 25 nM
O=C(O)c1ccnc(NC2C3CCC2CC(OCc2c(-c4ccccc4OC(F)(F)F)noc2C2CC2)C3)c1 (centres unmarked) [Example 3-3]	25 to 500 nM
O=C(O)c1cccc2nc(NC3C4CCC3CC(OCc3c(-c5ccccc5OC(F)(F)F)noc3C3CC3)C4)ccc12 (centres unmarked) [Example 3-4]	< 25 nM
O=C(O)c1cnc(NC2C3CCC2CC(OCc2c(-c4ccccc4OC(F)(F)F)noc2C2CC2)C3)c(C(F)(F)F)c1 (centres unmarked) [Example 3-5]	25 to 500 nM
O=C(O)c1ccc2nc(NC3C4CCC3CC(OCc3c(-c5ccccc5OC(F)(F)F)noc3C3CC3)C4)ccc2c1 (centres unmarked) [Example 3-6]	< 25 nM
O=C(O)c1cccc2nc(NC3C4CCC3CC(OCc3c(-c5ccccc5OC(F)(F)F)noc3C3CC3)C4)cnc12 (centres unmarked) [Example 3-7]	< 25 nM
O=C(O)c1cc2sc(NC3C4CCC3CC(OCc3c(-c5ccccc5OC(F)(F)F)noc3C3CC3)C4)nc2c(F)c1F (centres unmarked) [Example 3-9]	< 25 nM
O=C(O)c1ccc2nc(NC3C4CCC3CC(OCc3c(-c5ccccc5OC(F)(F)F)noc3C3CC3)C4)ncc2c1 (centres unmarked) [Example 3-12]	< 25 nM
O=C(O)c1cccc2nc(NC3C4CCC3CC(OCc3c(-c5ccccc5OC(F)(F)F)noc3C3CC3)C4)ncc12 (centres unmarked) [Example 3-13]	< 25 nM
CC(C)Oc1cc(C(=O)O)cc2sc(N[C@H]3C[C@@H]4C[C@H]3C[C@@H]4OCc3c(-c4c(Cl)cccc4Cl)noc3C3CC3)nc12 [Example 4, 2-(((1S,2S,4S,5S)-5-((5-cyclopropyl-3-(2,6-dichlorophenyl)isoxazol-4-yl)methoxy)bicyclo[2.2.1]heptan-2-yl)amino)-4-isopropoxybenzo[d]thiazole-6-carboxylic acid]	< 25 nM
CC(C)Oc1cc(C(=O)O)cc2sc(N[C@H]3C[C@@H]4C[C@H]3C[C@@H]4OCc3c(-c4ccccc4OC(F)(F)F)noc3C3CC3)nc12 [Example 5]	25 to 500 nM
CC(C)Oc1cc(C(=O)O)cc2sc(N[C@@H]3C[C@@H]4C[C@H]3C[C@@H]4OCc3c(-c4ccccc4OC(F)(F)F)noc3C3CC3)nc12 [Example 6]	25 to 500 nM
CC(C)Oc1cc(C(=O)O)cc2sc(N[C@@H]3C[C@H]4C[C@@H]3[C@@H](OCc3c(-c5c(Cl)cccc5Cl)noc3C3CC3)C4)nc12 [Example 7]	< 25 nM
NS(=O)(=O)c1ccc2nc(NC3C4CCC3CC(OCc3c(-c5ccccc5OC(F)(F)F)noc3C3CC3)C4)sc2c1 [Example 8, 2-(((1R,3r,5S,8s)-3-((5-cyclopropyl-3-(2-(trifluoromethoxy)phenyl)isoxazol-4-yl)methoxy)bicyclo[3.2.1]octan-8-yl)amino)benzo[d]thiazole-6-sulfonamide]	25 to 500 nM
O=C(O)c1ccc2c(S(=O)(=O)NC3C4CCC3CC(OCc3c(-c5ccccc5OC(F)(F)F)noc3C3CC3)C4)cccc2c1 [Example 9, 5-(N-((1R,3r,5S,8s)-3-((5-cyclopropyl-3-(2-(trifluoromethoxy)phenyl)isoxazol-4-yl)methoxy)bicyclo[3.2.1]octan-8-yl)sulfamoyl)-2-naphthoic acid]	< 25 nM

Second part, the molecule after the results:

EC50	SMILES
25 to 500 nM	NS(=O)(=O)c1ccc2nc(NC3C4CCC3CC(OCc3c(-c5ccccc5OC(F)(F)F)noc3C3CC3)C4)cnc2c1 (centres unmarked) [Example 8-2]
25 to 500 nM	NS(=O)(=O)c1ccc(NC2C3CCC2CC(OCc2c(-c4ccccc4OC(F)(F)F)noc2C2CC2)C3)nc1 (centres unmarked) [Example 8-3]
25 to 500 nM	N#Cc1ccc(NC2C3CCC2CC(OCc2c(-c4ccccc4OC(F)(F)F)noc2C2CC2)C3)nc1 [Example 8-4, 6-(((1R,3r,5S,8s)-3-((5-cyclopropyl-3-(2-(trifluoromethoxy)phenyl)isoxazol-4-yl)methoxy)bicyclo[3.2.1]octan-8-yl)amino)nicotinonitrile]
25 to 500 nM	FC(F)(F)Oc1ccccc1-c1noc(C2CC2)c1COC1CC2CCC(C1)C2Nc1ccc(-c2nnn[nH]2)cn1 [Example 8-5, N-((1R,3r,5S,8s)-3-((5-cyclopropyl-3-(2-(trifluoromethoxy)phenyl)isoxazol-4-yl)methoxy)bicyclo[3.2.1]octan-8-yl)-5-(1H-tetrazol-5-yl)pyridin-2-amine]
25 to 500 nM	FC(F)(F)Oc1ccccc1-c1noc(C2CC2)c1COC1CC2CCC(C1)C2Nc1nc2ccc(C(F)(F)F)cc2s1 (centres unmarked) [Example 8-6]
> 500 nM	FC(F)(F)Oc1ccccc1-c1noc(C2CC2)c1COC1CC2CCC(C1)C2Nc1ncc(-c2ccccc2)cn1 [Example 8-7, N-((1R,3r,5S,8s)-3-((5-cyclopropyl-3-(2-(trifluoromethoxy)phenyl)isoxazol-4-yl)methoxy)bicyclo[3.2.1]octan-8-yl)-5-phenylpyrimidin-2-amine]
> 500 nM	FC(F)(F)Oc1ccccc1-c1noc(C2CC2)c1COC1CC2CCC(C1)C2Nc1nccc(-c2ccccc2)n1 (centres unmarked) [Example 8-8]
< 25 nM	COC(=O)c1ccc(S(=O)(=O)NC2C3CCC2CC(OCc2c(-c4ccccc4OC(F)(F)F)noc2C2CC2)C3)c2ccccc12 (centres unmarked) [Example 9-2]
25 to 500 nM	O=C(O)c1ccc(S(=O)(=O)NC2C3CCC2CC(OCc2c(-c4ccccc4OC(F)(F)F)noc2C2CC2)C3)c2ccccc12 (centres unmarked) [Example 9-3]
25 to 500 nM	COC(=O)c1cccc2c(S(=O)(=O)NC3C4CCC3CC(OCc3c(-c5ccccc5OC(F)(F)F)noc3C3CC3)C4)cccc12 (centres unmarked) [Example 9-4]
< 25 nM	O=C(O)c1cccc2c(S(=O)(=O)NC3C4CCC3CC(OCc3c(-c5ccccc5OC(F)(F)F)noc3C3CC3)C4)cccc12 (centres unmarked) [Example 9-5]
< 25 nM	COC(=O)c1ccc2cc(S(=O)(=O)NC3C4CCC3CC(OCc3c(-c5ccccc5OC(F)(F)F)noc3C3CC3)C4)ccc2c1 (centres unmarked) [Example 9-6]
25 to 500 nM	O=C(O)c1ccc2cc(S(=O)(=O)NC3C4CCC3CC(OCc3c(-c5ccccc5OC(F)(F)F)noc3C3CC3)C4)ccc2c1 (centres unmarked) [Example 9-7]
> 500 nM	O=C(O)c1cccc(S(=O)(=O)NC2C3CCC2CC(OCc2c(-c4ccccc4OC(F)(F)F)noc2C2CC2)C3)c1 (centres unmarked) [Example 9-8]
> 500 nM	O=C(O)c1ccccc1S(=O)(=O)NC1C2CCC1CC(OCc1c(-c3ccccc3OC(F)(F)F)noc1C1CC1)C2 (centres unmarked) [Example 9-9]
25 to 500 nM	O=S(=O)(NC1C2CCC1CC(OCc1c(-c3ccccc3OC(F)(F)F)noc1C1CC1)C2)c1ccccc1 (centres unmarked) [Example 9-10]
